In PubChem BioAssay (NCI) one finds GI50 and TGI data, which are given here for seven compounds.

Among the test systems are MALME-3M melanoma; T-47D breast; OVCAR-3 ovarian; HOP-92 NSCLC; MOLT-4 leukemia; SF-295 CNS; NCI-H522 lung; HS 578T breast; SK-MEL-2 melanoma; SK-MEL-28 melanoma.
Holding throughout (experiment): NCI-60 cell line screen, 48 h

Each structure is given as a SMILES string. Where “and” joins values, the source holds several entries; their conditions need not be identical. Equal entries are not always repeated.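 Where inhibition never reached the appropriate level, the endpoint shown equals the highest concentration tested. Otherwise, values were interpolated linearly from a five-concentration, 48-hour dose response in 96-well plates. GI50 marks 50% less growth. TGI is the concentration that stops growth completely.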

As for `CC/C=C\C/C=C\C[C@H](O)C/C=C1/C(=O)C=C[C@@H]1C/C=C\CCCC(=O)O`, the GI50 in the assay on MALME-3M melanoma was 3.46 µM; with T-47D breast it was 3.88 µM; with OVCAR-3 ovarian it was 3.23 µM; in the assay on HOP-92 NSCLC, 7.26 µM; in the assay with MOLT-4 leukemia, 2.83 µM; with SF-295 CNS, 7.86 µM. The GI50 in the assay on NCI-H522 lung was 1.71 µM; in the assay with HS 578T breast, 28.4 µM; with SK-MEL-2 melanoma it was 3.33 µM; with SK-MEL-28 melanoma, 3.83 µM. The TGI in the assay on MALME-3M melanoma is 15.6 µM; in the assay with T-47D breast, 20.1 µM; in the assay with OVCAR-3 ovarian, 12.7 µM; in the assay with HOP-92 NSCLC, 20.4 µM; in the assay on MOLT-4 leukemia, 11.8 µM; in the assay on SF-295 CNS, 22.4 µM. Also, the TGI with NCI-H522 lung is 3.78 µM; in the assay with HS 578T breast, above 100 µM; in the assay on SK-MEL-2 melanoma it was 13.2 µM; in the assay on SK-MEL-28 melanoma it was 13.3 µM.

In the case of `COC(=O)[C@]12CC[C@@H](C)[C@H](C)[C@@H]1C1=CC[C@@H]3[C@@]4(C)C(C=O)=C[C@@](C)(COC(=O)c5ccco5)[C@@H]4C(=O)C[C@@]3(C)[C@]1(C)CC2`, the GI50 in the assay with MALME-3M melanoma is 0.0359 µM; with T-47D breast it was 3.71 µM; in the assay with OVCAR-3 ovarian, 5.75 µM; in the assay on HOP-92 NSCLC it was 1.37 µM; in the assay with MOLT-4 leukemia, 2.08 µM; in the assay on SF-295 CNS, 3.99 µM. For the same compound, the GI50 in the assay with NCI-H522 lung is 7.63 µM; with HS 578T breast it was 9.68 µM; with SK-MEL-2 melanoma, 0.5 µM; in the assay on SK-MEL-28 melanoma, 0.0524 µM. Moreover, the TGI was 0.256 µM in the assay on MALME-3M melanoma; 50.6 µM in the assay on T-47D breast; above 100 µM in the assay with OVCAR-3 ovarian; 91 µM in the assay on HOP-92 NSCLC; 7.8 µM with MOLT-4 leukemia; above 100 µM in the assay on SF-295 CNS. In addition, the TGI with NCI-H522 lung is above 100 µM; with HS 578T breast it was above 100 µM; in the assay with SK-MEL-2 melanoma, 2.78 µM; with SK-MEL-28 melanoma, above 100 µM.

On to `N#Cc1ccc(N2Cc3ccccc3OC3=C2C(=O)c2c(O)ccc(O)c2C3=O)cc1`, for which the GI50 in the assay on MALME-3M melanoma was 0.0837 µM; in the assay on T-47D breast, 0.175 µM; in the assay with OVCAR-3 ovarian, 0.153 µM; in the assay with HOP-92 NSCLC, 0.163 µM; in the assay on MOLT-4 leukemia, 0.102 µM; in the assay with SF-295 CNS, 2.12 µM. Further, the GI50 is 0.0336 µM in the assay on NCI-H522 lung, 1.16 µM with HS 578T breast, 1.01 µM with SK-MEL-2 melanoma and 0.216 µM with SK-MEL-28 melanoma. The TGI in the assay on MALME-3M melanoma amounted to 0.264 µM; in the assay on T-47D breast, 0.487 µM; in the assay with OVCAR-3 ovarian, 0.433 µM; in the assay on HOP-92 NSCLC, 0.409 µM; in the assay on MOLT-4 leukemia it was 0.76 µM; in the assay on SF-295 CNS, 6.96 µM. Further, the TGI in the assay on NCI-H522 lung amounted to 0.162 µM; in the assay on HS 578T breast, 7.07 µM; with SK-MEL-2 melanoma it was 3.8 µM; with SK-MEL-28 melanoma, 0.62 µM.

As to `O=[N+]([O-])c1ccc2c(N3CCC(CCCC4CCN(c5ncnc6cc([N+](=O)[O-])ccc56)CC4)CC3)ncnc2c1`, the GI50 in the assay on MALME-3M melanoma is above 59.7 µM; with T-47D breast it was 0.454 µM; with OVCAR-3 ovarian, 21.6 µM; in the assay with HOP-92 NSCLC, 4.89 µM; in the assay on MOLT-4 leukemia it was 24.8 µM; in the assay on SF-295 CNS, 5.53 µM. Besides, the GI50 with NCI-H522 lung is above 45.9 µM; in the assay on HS 578T breast it was above 46.3 µM; in the assay on SK-MEL-2 melanoma it was above 52.2 µM; in the assay with SK-MEL-28 melanoma, above 44.7 µM. For the same compound, the TGI in the assay with MALME-3M melanoma was above 92.1 µM; in the assay with T-47D breast, above 69.3 µM; with OVCAR-3 ovarian, above 100 µM; with HOP-92 NSCLC, above 76 µM; in the assay on MOLT-4 leukemia it was above 100 µM; in the assay on SF-295 CNS it was above 100 µM. The TGI was above 100 µM in the assay with NCI-H522 lung, above 100 µM in the assay on HS 578T breast, above 85.3 µM in the assay with SK-MEL-2 melanoma and above 100 µM with SK-MEL-28 melanoma.

With `CN1CCN(c2ccc3nc(-c4c(N)c5c(F)cccc5[nH]c4=O)[nH]c3c2)CC1`, the GI50 is 0.901 µM and 0.498 µM and 0.547 µM with MALME-3M melanoma; 4.04 µM and 12 µM in the assay with T-47D breast; 1.47 µM and 1.27 µM and 3.2 µM in the assay with OVCAR-3 ovarian; 0.621 µM and 0.422 µM and 0.645 µM in the assay with HOP-92 NSCLC; 0.392 µM and 0.322 µM and 0.42 µM in the assay with MOLT-4 leukemia; 2.41 µM and 1.09 µM and 3.14 µM in the assay with SF-295 CNS. Besides, the GI50 in the assay with NCI-H522 lung was 0.999 µM and 0.398 µM and 2.29 µM; in the assay on HS 578T breast, 0.791 µM and 0.286 µM and 0.974 µM; in the assay with SK-MEL-2 melanoma, 0.419 µM and 0.4 µM and 0.936 µM; with SK-MEL-28 melanoma it was 1.51 µM and 0.801 µM and 1.43 µM. Moreover, the TGI in the assay with MALME-3M melanoma was 2.46 µM and 1.75 µM and 1.97 µM; in the assay on T-47D breast it was 10.1 µM and > 6.23 µM and 31.9 µM; in the assay with OVCAR-3 ovarian, 2.96 µM and > 8.27 µM and 8.9 µM; in the assay on HOP-92 NSCLC it was 4.56 µM and > 2.93 µM and 5.82 µM; with MOLT-4 leukemia, 3.6 µM and 1.52 µM and 4.54 µM; in the assay with SF-295 CNS, 8.1 µM and > 6.69 µM and 8.95 µM. Besides, the TGI in the assay on NCI-H522 lung was 2.87 µM and > 2.3 µM and 11.7 µM; in the assay on HS 578T breast, 5.77 µM and > 2.37 µM and 9.75 µM; in the assay with SK-MEL-2 melanoma, 5.41 µM and > 2.24 µM and 22.8 µM; in the assay on SK-MEL-28 melanoma, 2.96 µM and 2.79 µM and 3.02 µM.

Consider `CCOC(=O)/C=C/c1cc2cc(-c3csc4ccccc34)ccc2[nH]1`, for which the GI50 in the assay with MALME-3M melanoma was 6.81 µM; in the assay on T-47D breast it was 4.45 µM; with OVCAR-3 ovarian, 5.34 µM; in the assay with HOP-92 NSCLC it was 10.7 µM; in the assay on MOLT-4 leukemia it was 2.44 µM; in the assay with SF-295 CNS it was 4.11 µM. In addition, the GI50 was 4.19 µM in the assay on NCI-H522 lung, 5.07 µM in the assay on HS 578T breast, 4.92 µM with SK-MEL-2 melanoma and 10.1 µM in the assay with SK-MEL-28 melanoma. Moreover, the TGI in the assay with MALME-3M melanoma turned out to be 20.5 µM; with T-47D breast, 18 µM; with OVCAR-3 ovarian, 17.1 µM; in the assay on HOP-92 NSCLC it was 29.5 µM; in the assay with MOLT-4 leukemia, 10.4 µM; with SF-295 CNS, 16 µM. Besides, the TGI in the assay on NCI-H522 lung came to 17 µM; with HS 578T breast, 22.2 µM; in the assay on SK-MEL-2 melanoma it was 17.3 µM; in the assay on SK-MEL-28 melanoma, 21.6 µM.

Consider `CC(=O)OCC(=O)O[C@@H]1C[C@]2(C(C)C)O[C@@]1(C)[C@@H]1CC[C@@H](C)[C@H]1[C@@H]2OC(=O)/C=C/c1ccccc1`, for which the GI50 in the assay with MALME-3M melanoma is 20.7 µM; in the assay with T-47D breast, 8.81 µM; in the assay on OVCAR-3 ovarian, 32.8 µM; with HOP-92 NSCLC, 8.81 µM; in the assay on MOLT-4 leukemia, 20.3 µM; with SF-295 CNS, 17 µM. Further, the GI50 was 17.9 µM with NCI-H522 lung, below 0.0116 µM in the assay on HS 578T breast, 17.3 µM in the assay with SK-MEL-2 melanoma and 22.3 µM in the assay with SK-MEL-28 melanoma. In addition, the TGI with MALME-3M melanoma is 88.8 µM; in the assay with T-47D breast it was above 97.2 µM; with OVCAR-3 ovarian, above 100 µM; in the assay with HOP-92 NSCLC, 22.9 µM; with MOLT-4 leukemia, above 100 µM; in the assay on SF-295 CNS, 43.9 µM. The TGI in the assay with NCI-H522 lung amounted to 47.8 µM; in the assay on HS 578T breast, 0.0363 µM; in the assay with SK-MEL-2 melanoma, 39.1 µM; in the assay on SK-MEL-28 melanoma, 83.4 µM.
